{"source": "paper PMC7272640", "about": "“Molecular docking, synthesis and biological evaluation of Vascular Endothelial Growth Factor (VEGF) B based peptide as antiangiogenic agent targeting the second domain of the Vascular Endothelial Growth Factor Receptor 1 (VEGFR1D2) for anticancer application” (Signal Transduction and Targeted Therapy, 2020)", "key": {"[1]": {"test_system": "human extracellular domains (ECD) of VEGFR1D2", "test": "ELISA-based displacement assay (VEGF-A/VEGFR-1 interaction)", "type": "binding", "details": "at 100 μM VGB3; btVEGF165 100 pM; plate coated with VEGFR1D2 ECD 20 ng/well, 5 nM; PBS; peptide 45 min at 37 °C then 2 h with btVEGF-A165; chemiluminescence; triplicate wells", "description": "A white flat-bottom high-binding 96-well plate (COSTAR 3922) was coated with human extracellular domains (ECD) of VEGFR1D2 (R&D Systems, Abingdon, UK) in PBS (20 ng/well, 5 nM) overnight at 4 °C. The plate was washed twice with 200 μL of wash buffer (PBS containing 0.1% (v/v) Tween 20) and treated with 200 μL of blocking buffer (PBS containing 3% (w/v) BSA) at 37 °C for 2 h, followed by two washes with wash buffer. Volumes of 50 μL of peptide VGB3 solution at twice the desired final concentration in PBS were added in triplicate wells and the plate was kept at 37 °C for 45 min. A solution of btVEGF-A165 (R & D Systems, Abingdon, UK) at twice the desired final concentration (100 pM) in 50 μL PBS was added. After 2 h incubation, the plate was washed two times with wash buffer. […] Volumes of 100 μL of Supersignal West Pico Chemiluminescent Substrate (Pierce, Rockford, IL, USA) were finally added and the chemiluminescence was quantified with a TECAN spectrophotometer plate-reader. The percentages of displacement were calculated by the following formula: 100×[1 – (S − NS)/(MS – NS)] where S is the signal measured, NS is the nonspecific binding signal defined as the signal measured in the absence of coated receptor on the microplate, and MS is the maximum binding signal obtained with btVEGF-A165 without the peptide VGB3."}, "[2]": {"test_system": "4T1 mammary carcinoma tumor", "test": "In vivo antitumor efficacy, 4T1 mammary carcinoma tumor model", "design": "species or system Female BALB/c mice", "description": "(§1) Female BALB/c mice (5–7 weeks) were purchased from the Laboratory Animal Center of the Iran Pasteur Institute and maintained under standardized environmental conditions: 12 h light-dark phases, with free access to food and water. For treatment with VGB3, Tumor cells (4T1; 1×10^6 cells/500 μl or 1×10^5 cells/50 μl) were injected subcutaneously into the right flanks of mice (n=3–5). To generate the metastatic model, 4T1 tumor models were sterilized, excised from the breast cancer-bearing BALB/c mice, cut into pieces of <0.3 cm3, and subcutaneously implanted into the animals' right flanks under ketamine (100 mg/kg, i.p.) and xylazine (10 mg/kg, i.p.) anesthesia. Animals carrying tumors of size ~100mm3 were randomized to 6 mice/group (n=6). The treatment groups received 0.02, 0.1, 0.2 or 0.5 mg/kg of VGB3 on alternate days and the control group received PBS i.v. into the mice for 19 days from day 13. The tumor volume was measured every 5 days by a digital Vernier caliper (Mitutoyo, Japan), using the following formula: v=a^2×b×0.52 (where a is the shortest and b is the longest diameter). All studies were performed under the guidelines and with the approval of the Institutional Animal Care and Use Committee (IACUC) of Tehran University of Medical Sciences."}, "[3]": {"test_system": "4T1 tumor tissues", "test": "Immunohistochemistry / TUNEL of excised 4T1 tumors", "type": "in vivo, Female BALB/c mice", "details": "VGB3 0.2 mg/kg vs PBS, n = 6", "description": "as §1\nExcised tumor tissues for immunohistochemical (IHC) analysis were fixed in formalin (4%), embedded in paraffin, sectioned, and stained with hematoxylin-eosin (H&E). IHC was followed by heat-induced epitope retrieval in a buffer at pH 9.0. IHC staining for CD31 and CD34 (to assign MVD), Ki67 (to determine the percentage of Ki67-positive cells), and P53 and Bcl-2 (to determine the fraction of apoptotic cells relative to total cells) was performed on formalin-fixed paraffin-embedded sections. Staining for cell death with TUNEL (terminal deoxynucleotidyl transferase nick-end labeling)) was performed, followed by enzymatic development in diaminobenzidine (DAB) (Invitrogen, Carlsbad, California, USA) detection and counter-staining in hematoxylin. Images were acquired by microscopy (Olympus BX-51, Japan). Numbers of positive cells were determined by analyzing five random tissue samples under scale bars 100 and 20 μm, with quantification using ImageJ."}}, "note": "Where a SMILES comes first, the peptide text is derived from it.", "data": [{"smiles": "CC(C)C[C@@H]1NC(=O)CNC(=O)[C@H](CC(=O)O)NC(=O)[C@H](CC(=O)O)NC(=O)[C@@H]2CCCN2C(=O)[C@@H]2CCCN2C(=O)[C@H](CCCNC(=N)N)NC(=O)[C@@H](NC(=O)[C@@H](N)CCC(=O)O)CSSC[C@@H](C(=O)O)NC1=O", "note": "[VGB3] (HELM PEPTIDE1{E.C.R.P.P.D.D.G.L.C}$PEPTIDE1,PEPTIDE1,2:R3-10:R3$$$V2.0)", "values": [{"measurement": "displacement of btVEGF165", "setting": "[1]", "result": "up to 63%"}, {"measurement": "inhibitory effects on tumor growth and angiogenesis compared with bevacizumab", "setting": "[2]; VGB3 0.2 mg/kg i.v. once in every 2 days vs reported bevacizumab 2 mg/kg, twice per week", "result": "definitely higher"}, {"measurement": "tumor growth inhibition vs PBS control", "setting": "[2]; i.v., alternate days, 19 days from day 13, n = 6, dose of the statement not specified", "result": "Significant inhibition of tumor growth"}, {"measurement": "Bcl-2 expression", "setting": "[3]; IHC", "result": "decreased"}, {"measurement": "CD31 expression", "setting": "[3]; IHC", "result": "decreased"}, {"measurement": "CD34 expression", "setting": "[3]; IHC", "result": "decreased"}, {"measurement": "Ki67 expression", "setting": "[3]; IHC", "result": "decreased"}, {"measurement": "p53 expression", "setting": "[3]; IHC", "result": "increased"}, {"measurement": "TUNEL staining", "setting": "[3]", "result": "increased"}]}]}
